Data published in ChEMBL document CHEMBL4831493 (Eur J Med Chem, 2021).
Calls of active or inactive are those of the source. The calls are words filed in the database; no cut-off is given here.

What was measured:
[1] = target: Cyclin-dependent kinase 4 (Homo sapiens) (UniProt P11802); assay: Inhibition of CDK4 (unknown origin) at 0.3 uM
[2] = target: Cyclin-dependent kinase 9 (Homo sapiens) (UniProt P50750); assay: Inhibition of CDK9 (unknown origin) at 0.3 uM
[3] = target: Mitogen-activated protein kinase 14 (Homo sapiens) (UniProt Q16539); assay: Inhibition of p38alpha (unknown origin) at 0.3 uM
Mitogen-activated protein kinase 14 (Homo sapiens), sequence (Q16539 whole entry): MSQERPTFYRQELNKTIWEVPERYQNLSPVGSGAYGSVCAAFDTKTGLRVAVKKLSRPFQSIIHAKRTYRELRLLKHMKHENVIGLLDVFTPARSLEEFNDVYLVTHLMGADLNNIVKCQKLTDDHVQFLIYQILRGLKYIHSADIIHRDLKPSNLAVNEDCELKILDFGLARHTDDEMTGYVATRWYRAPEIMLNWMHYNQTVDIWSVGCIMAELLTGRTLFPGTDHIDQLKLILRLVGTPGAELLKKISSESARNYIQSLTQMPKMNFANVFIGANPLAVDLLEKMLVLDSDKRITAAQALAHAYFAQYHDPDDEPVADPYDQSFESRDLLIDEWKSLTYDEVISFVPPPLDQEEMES

[4] = target: Mitogen-activated protein kinase 12 (Homo sapiens) (UniProt P53778); assay: Inhibition of p38gamma (unknown origin) at 0.3 uM
Mitogen-activated protein kinase 12 (Homo sapiens), sequence (P53778 whole entry): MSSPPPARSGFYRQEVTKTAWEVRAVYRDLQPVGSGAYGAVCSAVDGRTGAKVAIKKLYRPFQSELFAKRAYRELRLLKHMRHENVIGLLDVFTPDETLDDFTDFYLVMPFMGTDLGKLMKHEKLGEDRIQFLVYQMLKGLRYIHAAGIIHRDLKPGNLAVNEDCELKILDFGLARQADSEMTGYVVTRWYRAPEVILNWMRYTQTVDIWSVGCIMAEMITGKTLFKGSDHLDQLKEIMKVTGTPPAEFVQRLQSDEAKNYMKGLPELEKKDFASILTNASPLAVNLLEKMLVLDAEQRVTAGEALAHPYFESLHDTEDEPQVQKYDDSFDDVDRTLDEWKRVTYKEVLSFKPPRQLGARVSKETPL

[5] = target: Mitogen-activated protein kinase 13 (Homo sapiens) (UniProt O15264); assay: Inhibition of p38delta (unknown origin) at 0.3 uM
Mitogen-activated protein kinase 13 (Homo sapiens), sequence (O15264 whole entry): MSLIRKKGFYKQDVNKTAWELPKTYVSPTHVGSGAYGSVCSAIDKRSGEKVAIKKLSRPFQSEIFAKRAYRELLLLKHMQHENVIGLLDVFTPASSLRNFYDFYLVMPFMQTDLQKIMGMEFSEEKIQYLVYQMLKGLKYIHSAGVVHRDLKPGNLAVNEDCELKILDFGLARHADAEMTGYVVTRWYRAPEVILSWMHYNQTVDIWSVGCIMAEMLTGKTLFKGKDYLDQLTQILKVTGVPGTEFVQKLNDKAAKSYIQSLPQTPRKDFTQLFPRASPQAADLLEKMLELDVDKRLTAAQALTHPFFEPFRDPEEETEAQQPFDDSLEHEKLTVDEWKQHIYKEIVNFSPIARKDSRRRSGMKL

[6] = target: Dual specificity tyrosine-phosphorylation-regulated kinase 1A (Homo sapiens) (UniProt Q13627); assay: Inhibition of dyrk1 alpha (unknown origin) at 0.3 uM
[7] = target: Dual specificity tyrosine-phosphorylation-regulated kinase 1B (Homo sapiens) (UniProt Q9Y463); assay: Inhibition of dyrk1 beta (unknown origin) at 0.3 uM
Dual specificity tyrosine-phosphorylation-regulated kinase 1B (Homo sapiens), sequence (Q9Y463 whole entry, looked up): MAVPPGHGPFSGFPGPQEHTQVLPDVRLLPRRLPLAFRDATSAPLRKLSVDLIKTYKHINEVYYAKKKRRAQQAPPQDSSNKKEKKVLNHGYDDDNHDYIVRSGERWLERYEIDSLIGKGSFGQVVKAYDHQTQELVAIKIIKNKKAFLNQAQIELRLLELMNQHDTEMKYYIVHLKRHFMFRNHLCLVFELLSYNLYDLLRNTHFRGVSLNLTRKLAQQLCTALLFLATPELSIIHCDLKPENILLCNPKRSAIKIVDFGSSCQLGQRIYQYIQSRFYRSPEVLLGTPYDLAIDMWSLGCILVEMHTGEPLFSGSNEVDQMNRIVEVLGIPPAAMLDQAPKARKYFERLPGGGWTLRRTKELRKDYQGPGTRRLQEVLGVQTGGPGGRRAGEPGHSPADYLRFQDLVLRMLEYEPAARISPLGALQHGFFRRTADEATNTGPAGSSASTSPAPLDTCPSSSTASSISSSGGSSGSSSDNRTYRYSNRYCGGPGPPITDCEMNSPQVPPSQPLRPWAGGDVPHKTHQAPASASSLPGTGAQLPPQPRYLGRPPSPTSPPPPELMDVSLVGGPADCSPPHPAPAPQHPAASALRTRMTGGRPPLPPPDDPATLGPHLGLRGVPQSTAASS

[8] = target: Mitogen-activated protein kinase 10 (Homo sapiens) (UniProt P53779); assay: Inhibition of JNK3 (unknown origin) at 0.3 uM
Mitogen-activated protein kinase 10 (Homo sapiens), sequence (P53779 whole entry): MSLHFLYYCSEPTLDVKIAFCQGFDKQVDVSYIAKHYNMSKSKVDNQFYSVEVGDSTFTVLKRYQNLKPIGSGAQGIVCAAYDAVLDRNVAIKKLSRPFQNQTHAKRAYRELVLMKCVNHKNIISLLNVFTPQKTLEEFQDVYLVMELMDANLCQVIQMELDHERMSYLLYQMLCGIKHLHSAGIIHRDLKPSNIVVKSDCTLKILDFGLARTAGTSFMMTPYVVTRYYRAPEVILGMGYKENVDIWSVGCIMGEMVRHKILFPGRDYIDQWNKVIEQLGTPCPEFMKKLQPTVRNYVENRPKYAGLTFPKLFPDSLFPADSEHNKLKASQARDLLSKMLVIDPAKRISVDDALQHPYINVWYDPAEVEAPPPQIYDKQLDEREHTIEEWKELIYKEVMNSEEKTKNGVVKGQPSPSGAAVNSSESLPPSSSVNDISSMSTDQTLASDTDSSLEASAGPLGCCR

[9] = Ratio of drug level in brain to plasma of ICR mouse at 10 mg/kg, po measured after 1 hr by LC/MS/MS analysis; assay type: ADME, organism-based; conditions: brain and plasma
HT-22 = assay: Neuroprotective activity in mouse HT-22 cells assessed as glutamate-induced cell mortality at 6 uM preincubated for 1 hr followed by addition of glutamate and measured after 24 hrs (reference value: 58%); assay type: functional; conditions: time 25 hrs
[10] = AUC (0 to infinity) in Sprague-Dawley rat at 10 mg/kg, po measured up to 24 hrs by LC-MS/MS analysis; assay type: ADME, organism-based; parameters: route oral, dose 10 mg/kg, time <=24; conditions: in vivo
[11] = AUC (0 to infinity) in Sprague-Dawley rat at 1 mg/kg, iv measured up to 24 hrs by LC-MS/MS analysis; assay type: ADME, organism-based; parameters: route intravenous, dose 1 mg/kg, time <=24; conditions: in vivo
[12] = Cmax in Sprague-Dawley rat at 1 mg/kg, iv measured up to 24 hrs by LC-MS/MS analysis; assay type: ADME, organism-based; parameters: route intravenous, dose 1 mg/kg, time <=24; conditions: in vivo
Rattus norvegicus = assay: Neuroprotective activity against amyloid beta (1 to 42)-induced suppression of synaptophysin in Sprague-Dawley rat at 5 mg/kg/day, po measured after 5 days by immunohistochemistry assay; assay type: functional, organism-based; conditions: time 5.0 day
[13] = target: Glycogen synthase kinase-3 beta (Mus musculus) (UniProt Q9WV60); assay: Inhibition of GSK3beta in mouse N2a cells overexpressing human tau assessed as decrease in tau phosphorylation at Ser 396 residue measured after 6 hrs by Western blot assay; assay type: cell-based
Glycogen synthase kinase-3 beta (Mus musculus), sequence (Q9WV60 whole entry, looked up): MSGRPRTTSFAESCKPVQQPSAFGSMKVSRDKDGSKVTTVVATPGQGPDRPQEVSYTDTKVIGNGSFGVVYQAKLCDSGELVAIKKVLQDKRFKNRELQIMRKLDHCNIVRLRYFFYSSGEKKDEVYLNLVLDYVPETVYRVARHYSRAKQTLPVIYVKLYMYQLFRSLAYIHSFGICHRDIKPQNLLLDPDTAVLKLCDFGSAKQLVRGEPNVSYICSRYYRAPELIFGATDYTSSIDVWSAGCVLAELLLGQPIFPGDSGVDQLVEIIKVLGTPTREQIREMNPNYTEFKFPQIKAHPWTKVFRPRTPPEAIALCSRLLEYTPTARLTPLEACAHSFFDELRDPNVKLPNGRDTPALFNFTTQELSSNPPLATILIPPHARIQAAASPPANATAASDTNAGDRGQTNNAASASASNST

Mus musculus = assay: Improvement in learning and spatial memory in amyloid beta (1 to 42)-induced mouse model of Alzheimer's disease at 10 mg/kg/day, po pretreated with amyloid beta42 for 3 days followed by treatment with compound and measured after 9 days measured by Y-maze test; assay type: functional, organism-based; conditions: time 9.0 day
[14] = Toxicity in amyloid beta (1 to 42)-induced mouse model of Alzheimer's disease assessed as changes in swimming speed at 10 mg/kg/day, po measured after 9 days; assay type: organism-based; conditions: in vivo, 216 h, time 9 day
[15] = Toxicity in amyloid beta (1 to 42)-induced mouse model of Alzheimer's disease assessed as morphological changes in liver tissue at 10 mg/kg/day, po measured after 9 days by HE staining method; assay type: organism-based; conditions: in vivo, 216 h, time 9 day
[16] = target: T1, Acetylcholinesterase (Mus musculus) (UniProt P21836); conditions: ICR, dose 10.0 mg/kg, time 1.5 hrs
T1 sequence (whole entry): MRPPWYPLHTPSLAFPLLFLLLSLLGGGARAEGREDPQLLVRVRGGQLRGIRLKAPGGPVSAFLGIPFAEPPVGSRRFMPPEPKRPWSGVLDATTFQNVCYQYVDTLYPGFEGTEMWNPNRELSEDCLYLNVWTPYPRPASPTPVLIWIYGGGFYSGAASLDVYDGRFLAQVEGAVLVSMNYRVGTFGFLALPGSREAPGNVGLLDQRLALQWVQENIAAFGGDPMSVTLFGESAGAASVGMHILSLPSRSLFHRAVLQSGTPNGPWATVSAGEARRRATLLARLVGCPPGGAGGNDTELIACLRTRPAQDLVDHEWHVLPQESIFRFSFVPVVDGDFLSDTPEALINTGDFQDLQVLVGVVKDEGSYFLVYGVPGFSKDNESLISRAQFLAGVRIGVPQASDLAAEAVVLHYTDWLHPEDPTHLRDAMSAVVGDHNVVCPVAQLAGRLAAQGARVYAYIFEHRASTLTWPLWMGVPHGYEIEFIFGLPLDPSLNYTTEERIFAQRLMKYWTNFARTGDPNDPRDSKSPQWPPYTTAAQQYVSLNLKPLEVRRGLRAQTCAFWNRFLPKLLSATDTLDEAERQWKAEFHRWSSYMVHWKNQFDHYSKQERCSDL

Cyclin-dependent kinase 9 (Homo sapiens), sequence (P50750 whole entry): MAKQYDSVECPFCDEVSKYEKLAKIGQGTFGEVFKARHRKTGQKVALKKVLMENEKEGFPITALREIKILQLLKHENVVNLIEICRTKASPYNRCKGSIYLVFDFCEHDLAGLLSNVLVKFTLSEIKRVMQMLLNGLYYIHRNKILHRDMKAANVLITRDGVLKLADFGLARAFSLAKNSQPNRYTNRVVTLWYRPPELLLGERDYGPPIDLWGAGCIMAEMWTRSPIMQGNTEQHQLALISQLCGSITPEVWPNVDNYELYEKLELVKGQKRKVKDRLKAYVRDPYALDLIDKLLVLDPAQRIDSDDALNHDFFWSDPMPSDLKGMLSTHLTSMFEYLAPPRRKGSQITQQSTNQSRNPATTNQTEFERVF
Cyclin-dependent kinase 4 (Homo sapiens), sequence (P11802 whole entry): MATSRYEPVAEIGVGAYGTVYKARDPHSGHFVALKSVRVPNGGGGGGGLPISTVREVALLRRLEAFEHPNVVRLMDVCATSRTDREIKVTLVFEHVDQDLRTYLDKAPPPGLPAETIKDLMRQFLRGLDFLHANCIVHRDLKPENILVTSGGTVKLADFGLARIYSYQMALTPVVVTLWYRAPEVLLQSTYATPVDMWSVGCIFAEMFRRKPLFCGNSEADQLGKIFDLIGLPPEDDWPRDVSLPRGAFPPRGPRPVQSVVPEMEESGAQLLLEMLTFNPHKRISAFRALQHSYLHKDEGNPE

In the case of O=C(Nc1cncc(OCC2CCN(Cc3ccc(F)cc3)CC2)c1)c1ccnc(NC(=O)C2CC2)c1, the inhibition [1] was “inactive”, the inhibition [2] was “inactive” and the inhibition [3] was “inactive”. The inhibition [4] was “inactive”, the inhibition [5] was “inactive” and the inhibition [6] was “inactive”. The inhibition [7] was “inactive”, the inhibition [8] was “inactive” and the Kp at 1 h [9] was 0.153. For the same compound, the Activity (HT-22) was 66%, the AUC(0-inf) [10] was 1260 ng·h/mL and the AUC(0-inf) [11] was 407 ng·h/mL. For the same compound, the Cmax [12] was 200 ng/mL, the Activity (Rattus norvegicus) was “Active” and the inhibition [13] was “Dose-Dependent Effect”. For the same compound, the Activity (Mus musculus) was “Active”, the Activity [14] was “Non-Toxic” and the Activity [15] was “Non-Toxic”. The inhibition [16] was 46.2%.
